This is an account of results in patent US20080009418A1, “Selective Inhibitors” (Alchemia LTD., priority 2004, published 2008).

The target of one experiment is T1, Human μ-opioid (MOP) (Homo sapiens, UniProt P35372).
T1 construct: purchased Perkin Elmer Biosignal
The experiment is described as follows: Radioligand binding, human μ-opioid (MOP) membranes, FlashPlate, [3H]-Naloxone. The settings on record: compound at 10 μM; [3H]-Naloxone. Summed up: (§1)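 Cloned human receptor membranes were coated onto FlashPlate wells and incubated with radioligand and compound (added from a 0.5 mM DMSO daughter plate) for 1 hour at room temperature in the dark. Scintillation counting gave percent inhibition, with DMSO defining total and reference ligand defining non-specific binding.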

A further experiment has as its target T2, Human κ-Opioid (KOP) (Homo sapiens, UniProt P41145).
T2 construct: purchased Perkin Elmer Biosignal
The experiment is described as follows: Radioligand binding, human κ-opioid (KOP) membranes, filtration, [3H]-Diprenorphine. The settings on record: compound at 10 μM; [3H]-Diprenorphine. In outline:
(§2)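 Percent inhibition of radioligand binding measured on recombinant human membranes: NK1 with [125I]-Substance P, KOP with [3H]-Diprenorphine. Incubation 1 h at room temperature, then harvest onto 0.3% PEI-soaked filters, cold Tris-HCl pH 7.4 washes and scintillation counting; non-specific binding from reference ligand wells.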

The target of experiment [1] is T3, Human melanin-concentrating hormone (MCH1) (Homo sapiens, UniProt Q99705).
T3 construct: purchased Perkin Elmer Biosignal
The experiment is described as follows: Radioligand binding, human melanin-concentrating hormone MCH1 membranes, FlashPlate, [125I]-S36057. The settings on record: compound at 10 μM; [125I]-S36057. In outline: as §1

The target of another experiment is T4, Mouse urotensin (mUR2) (Mus musculus, UniProt Q8VIH9).
T4 construct: purchased Perkin Elmer Biosignal
T4 sequence (Q8VIH9 1-385): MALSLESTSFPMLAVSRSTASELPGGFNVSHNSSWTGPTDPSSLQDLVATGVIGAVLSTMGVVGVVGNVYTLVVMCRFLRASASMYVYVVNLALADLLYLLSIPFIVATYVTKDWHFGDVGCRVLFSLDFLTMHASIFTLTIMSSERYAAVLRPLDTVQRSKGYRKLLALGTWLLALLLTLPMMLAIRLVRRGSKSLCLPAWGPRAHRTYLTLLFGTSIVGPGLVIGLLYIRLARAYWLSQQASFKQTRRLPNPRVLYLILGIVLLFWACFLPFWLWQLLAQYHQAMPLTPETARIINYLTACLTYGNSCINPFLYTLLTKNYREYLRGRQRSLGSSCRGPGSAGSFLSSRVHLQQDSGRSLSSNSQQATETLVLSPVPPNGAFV
The experiment is described as follows: Radioligand binding, mouse urotensin mUR2 membranes, FlashPlate, [125I]-Urotensin II. The note with it: compound at 10 μM; [125I]-Urotensin II. Summed up: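 Cloned mouse urotensin (mUR2) receptor membranes from Perkin Elmer Biosignal were immobilized in FlashPlate microplates using a proprietary coating. Each well got 19.5 μl buffer, then 0.5 μl of DMSO, reference ligand, or compound. Adding 5 μl of [125I]-Urotensin II, diluted to 5× final concentration in binding buffer, started binding. Plates were sealed with TopSeal-A and incubated 1 hour at room temperature in the dark. Wells were counted for 30 seconds each on a TopCount after a 60-second delay, and percentage inhibition was calculated.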

The target in the next experiment is T5, Human Melanocortin (MC3) (Homo sapiens, UniProt P41968).
T5 construct: purchased Perkin Elmer Biosignal
The experiment is described as follows: Radioligand binding, human melanocortin MC3 membranes, FlashPlate, [125I]-NDP-αMSH. The settings on record: compound at 10 μM; [125I]-NDP-αMSH. Summed up:
as §1

Experiment [2] addresses T6, Human neuropeptide Y (NPY-Y1) (Homo sapiens, UniProt P25929).
T6 construct: purchased Perkin Elmer Biosignal
T6 sequence (P25929 1-384): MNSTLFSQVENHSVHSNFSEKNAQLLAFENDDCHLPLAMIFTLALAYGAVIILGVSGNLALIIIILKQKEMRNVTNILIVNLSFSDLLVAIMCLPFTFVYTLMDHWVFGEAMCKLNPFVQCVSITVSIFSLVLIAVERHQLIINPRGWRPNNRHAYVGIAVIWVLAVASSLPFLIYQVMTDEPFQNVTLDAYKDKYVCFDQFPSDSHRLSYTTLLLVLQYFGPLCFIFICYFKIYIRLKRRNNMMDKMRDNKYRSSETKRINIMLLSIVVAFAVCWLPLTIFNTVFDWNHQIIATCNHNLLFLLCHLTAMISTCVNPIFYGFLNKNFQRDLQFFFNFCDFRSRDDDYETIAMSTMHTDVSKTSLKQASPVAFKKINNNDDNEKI
Briefly: Radioligand binding, human neuropeptide Y NPY-Y1 membranes, FlashPlate, [125I]-PYY. The settings on record: compound at 10 μM; [125I]-PYY. In outline: as §1

The next experiment addresses T7, Human opioid (ORL1) (Homo sapiens, UniProt P41146).
T7 construct: purchased Perkin Elmer Biosignal
Briefly: Radioligand binding, human opioid ORL1 membranes, FlashPlate, [125I]-Nociceptin. The settings on record: compound at 10 μM; [125I]-Nociceptin. In outline: as §1

Another experiment concerns the target T8, Human Melanocortin (MC4) (Homo sapiens, UniProt P32245).
T8 construct: purchased Perkin Elmer Biosignal
Briefly: Radioligand binding, human melanocortin MC4 membranes, FlashPlate, [125I]-NDP-αMSH. The note with it: compound at 10 μM; [125I]-NDP-αMSH. Summed up: as §1

For the next experiment, the target named is T9, Human δ-opioid (DOP) (Homo sapiens, UniProt P41143).
T9 construct: purchased Perkin Elmer Biosignal
Briefly: Radioligand binding, human δ-opioid (DOP) membranes, FlashPlate, [3H]-Bremazocine. The note with it: compound at 10 μM; [3H]-Bremazocine. In outline: as §1

The target of a further experiment is T10, Human melanocortin (MC5) (Homo sapiens, UniProt P33032).
T10 construct: purchased Perkin Elmer Biosignal
The experiment is described as follows: Radioligand binding, human melanocortin MC5 membranes, FlashPlate, [125I]-NDP-αMSH. The note with it: compound at 10 μM; [125I]-NDP-αMSH. In outline: as §1

The target of a further experiment is T11, Human neurokinin (NK1) (Homo sapiens, UniProt P25103).
T11 construct: purchased Perkin Elmer Biosignal
Briefly: Radioligand binding, human neurokinin NK1 membranes, filtration, [125I]-Substance P. The note with it: compound at 10 μM; [125I]-Substance P. In outline:
as §2

T11 sequence (P25103 whole entry): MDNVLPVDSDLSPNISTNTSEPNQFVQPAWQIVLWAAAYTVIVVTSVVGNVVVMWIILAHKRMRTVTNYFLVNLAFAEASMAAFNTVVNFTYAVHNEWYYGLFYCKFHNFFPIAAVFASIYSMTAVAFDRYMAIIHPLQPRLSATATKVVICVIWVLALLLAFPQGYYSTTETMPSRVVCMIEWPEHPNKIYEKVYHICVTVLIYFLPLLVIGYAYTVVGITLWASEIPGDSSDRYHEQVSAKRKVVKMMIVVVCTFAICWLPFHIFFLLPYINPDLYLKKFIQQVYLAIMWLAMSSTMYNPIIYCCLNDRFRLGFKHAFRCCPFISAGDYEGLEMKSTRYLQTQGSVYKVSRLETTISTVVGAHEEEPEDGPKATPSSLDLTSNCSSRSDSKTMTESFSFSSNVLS
T9 sequence (P41143 whole entry): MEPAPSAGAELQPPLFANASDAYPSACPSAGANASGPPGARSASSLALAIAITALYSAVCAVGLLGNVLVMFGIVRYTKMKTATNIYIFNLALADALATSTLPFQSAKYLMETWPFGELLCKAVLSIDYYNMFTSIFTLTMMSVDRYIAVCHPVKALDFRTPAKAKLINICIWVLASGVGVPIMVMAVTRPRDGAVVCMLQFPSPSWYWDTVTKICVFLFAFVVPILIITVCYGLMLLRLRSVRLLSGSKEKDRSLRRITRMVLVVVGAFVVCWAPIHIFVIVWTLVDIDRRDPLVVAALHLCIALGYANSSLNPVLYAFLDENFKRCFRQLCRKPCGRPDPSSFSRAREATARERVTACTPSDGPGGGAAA
T8 sequence (P32245 whole entry): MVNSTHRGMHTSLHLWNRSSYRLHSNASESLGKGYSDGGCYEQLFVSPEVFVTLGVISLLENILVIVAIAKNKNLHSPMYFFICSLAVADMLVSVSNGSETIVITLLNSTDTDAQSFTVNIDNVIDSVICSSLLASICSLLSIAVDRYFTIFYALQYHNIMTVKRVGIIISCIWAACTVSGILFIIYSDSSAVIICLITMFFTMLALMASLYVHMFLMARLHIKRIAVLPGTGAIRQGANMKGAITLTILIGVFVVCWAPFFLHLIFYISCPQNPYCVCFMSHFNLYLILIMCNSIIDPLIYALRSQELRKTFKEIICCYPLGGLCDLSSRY
T5 sequence (P41968 whole entry): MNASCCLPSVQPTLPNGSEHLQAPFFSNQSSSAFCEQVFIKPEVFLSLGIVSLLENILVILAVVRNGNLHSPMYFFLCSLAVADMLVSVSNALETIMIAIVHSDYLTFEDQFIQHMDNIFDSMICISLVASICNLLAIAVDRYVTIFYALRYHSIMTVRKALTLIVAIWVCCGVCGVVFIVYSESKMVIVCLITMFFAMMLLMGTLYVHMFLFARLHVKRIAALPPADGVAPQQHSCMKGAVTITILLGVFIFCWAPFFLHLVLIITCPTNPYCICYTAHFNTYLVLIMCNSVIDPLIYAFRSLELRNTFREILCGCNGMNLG
T1 sequence (P35372 whole entry): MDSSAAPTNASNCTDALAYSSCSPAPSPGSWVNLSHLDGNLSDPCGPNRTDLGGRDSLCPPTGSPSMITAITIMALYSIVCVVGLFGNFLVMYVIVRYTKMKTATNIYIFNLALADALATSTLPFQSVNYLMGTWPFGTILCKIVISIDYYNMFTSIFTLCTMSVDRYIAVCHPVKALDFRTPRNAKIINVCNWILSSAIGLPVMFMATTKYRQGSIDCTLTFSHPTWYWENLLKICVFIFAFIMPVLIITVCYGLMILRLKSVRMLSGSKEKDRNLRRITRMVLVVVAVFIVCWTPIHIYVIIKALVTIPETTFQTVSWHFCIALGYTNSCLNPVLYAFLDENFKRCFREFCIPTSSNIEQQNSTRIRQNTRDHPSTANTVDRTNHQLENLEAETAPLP
T2 sequence (P41145 whole entry): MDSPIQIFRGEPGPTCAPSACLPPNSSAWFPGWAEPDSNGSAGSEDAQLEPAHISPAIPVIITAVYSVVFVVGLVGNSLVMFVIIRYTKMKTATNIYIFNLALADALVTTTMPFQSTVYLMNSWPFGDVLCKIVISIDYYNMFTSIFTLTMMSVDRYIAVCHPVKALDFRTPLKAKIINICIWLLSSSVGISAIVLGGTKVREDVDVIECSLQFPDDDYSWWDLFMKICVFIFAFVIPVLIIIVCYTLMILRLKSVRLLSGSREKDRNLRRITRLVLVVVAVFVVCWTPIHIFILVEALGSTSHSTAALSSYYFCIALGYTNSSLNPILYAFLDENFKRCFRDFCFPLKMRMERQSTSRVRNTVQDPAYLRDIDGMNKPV
T10 sequence (P33032 whole entry): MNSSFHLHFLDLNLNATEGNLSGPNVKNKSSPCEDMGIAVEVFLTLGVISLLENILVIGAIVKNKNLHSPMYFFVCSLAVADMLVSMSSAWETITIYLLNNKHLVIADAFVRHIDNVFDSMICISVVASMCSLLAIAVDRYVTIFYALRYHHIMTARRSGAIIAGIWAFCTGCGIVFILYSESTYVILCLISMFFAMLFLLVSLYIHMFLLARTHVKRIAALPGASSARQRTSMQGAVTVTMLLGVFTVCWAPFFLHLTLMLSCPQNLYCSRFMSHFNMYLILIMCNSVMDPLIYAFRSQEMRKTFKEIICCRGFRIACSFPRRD
T3 sequence (Q99705 whole entry): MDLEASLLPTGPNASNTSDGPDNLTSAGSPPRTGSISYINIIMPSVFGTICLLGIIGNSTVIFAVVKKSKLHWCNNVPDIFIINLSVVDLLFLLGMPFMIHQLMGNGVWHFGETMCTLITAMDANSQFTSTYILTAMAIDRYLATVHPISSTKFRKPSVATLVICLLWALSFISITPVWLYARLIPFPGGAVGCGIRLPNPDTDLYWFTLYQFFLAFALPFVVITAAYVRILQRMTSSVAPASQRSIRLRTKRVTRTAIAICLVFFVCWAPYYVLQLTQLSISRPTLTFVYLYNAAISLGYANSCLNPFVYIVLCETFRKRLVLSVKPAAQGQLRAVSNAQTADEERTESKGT
T7 sequence (P41146 whole entry): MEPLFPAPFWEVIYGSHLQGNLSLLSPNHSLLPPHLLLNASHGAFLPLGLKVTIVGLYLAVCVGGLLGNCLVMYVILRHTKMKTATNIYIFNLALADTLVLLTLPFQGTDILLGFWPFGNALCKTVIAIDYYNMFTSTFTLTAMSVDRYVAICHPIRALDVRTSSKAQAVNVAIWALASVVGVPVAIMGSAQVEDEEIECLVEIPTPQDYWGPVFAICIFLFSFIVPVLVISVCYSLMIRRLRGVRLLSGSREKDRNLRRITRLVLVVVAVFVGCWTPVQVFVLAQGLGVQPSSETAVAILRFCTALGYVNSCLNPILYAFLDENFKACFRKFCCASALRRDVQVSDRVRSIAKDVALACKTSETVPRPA

For the compound `COC[C@H]1OC(OCc2cccc(O)c2)[C@H](NC(=O)CNC(=N)N)[C@@H](OCc2ccc(-c3ccccc3)cc2)[C@@H]1O` (stereo partly drawn) [compound 141], the “A7 radioligand binding, percentage inhibition” value at Human μ-opioid (MOP) is “− (“−” indicates less than 50% inhibition at 10 μM)”. At Human κ-Opioid (KOP), the “A2 radioligand binding, percentage inhibition” value was “− (“−” indicates less than 50% inhibition at 10 μM)”. Further, in experiment [1], the “A6 radioligand binding, percentage inhibition” value is reported as “+ (“+” indicates greater than 50% inhibition at 10 μM)”. Also, the “A11 radioligand binding, percentage inhibition” value at Mouse urotensin (mUR2) was “− (“−” indicates less than 50% inhibition at 10 μM)”. The “A3 radioligand binding, percentage inhibition” value at Human Melanocortin (MC3) is “− (“−” indicates less than 50% inhibition at 10 μM)”. Also, in experiment [2], the “A9 radioligand binding, percentage inhibition” value is reported as “− (“−” indicates less than 50% inhibition at 10 μM)”. In addition, at Human opioid (ORL1), the “A10 radioligand binding, percentage inhibition” value is “− (“−” indicates less than 50% inhibition at 10 μM)”. The “A4 radioligand binding, percentage inhibition” value on Human Melanocortin (MC4) is “− (“−” indicates less than 50% inhibition at 10 μM)”. Moreover, on Human δ-opioid (DOP), the “A1 radioligand binding, percentage inhibition” value was “− (“−” indicates less than 50% inhibition at 10 μM)”. The “A5 radioligand binding, percentage inhibition” value on Human melanocortin (MC5) is given as “+ (“+” indicates greater than 50% inhibition at 10 μM)”. The “A8 radioligand binding, percentage inhibition” value at Human neurokinin (NK1) is “− (“−” indicates less than 50% inhibition at 10 μM)”.

Regarding `COC[C@H]1OC(OCc2cccc(O)c2)[C@H](NC(=O)CCNC(=N)N)[C@@H](OCc2ccc(-c3ccccc3)cc2)[C@@H]1O` (stereo partly drawn) [compound 142], the “A7 radioligand binding, percentage inhibition” value on Human μ-opioid (MOP) is recorded as “− (“−” indicates less than 50% inhibition at 10 μM)”. For the same compound, the “A2 radioligand binding, percentage inhibition” value at Human κ-Opioid (KOP) is “− (“−” indicates less than 50% inhibition at 10 μM)”. The “A6 radioligand binding, percentage inhibition” value in experiment [1] is reported as “+ (“+” indicates greater than 50% inhibition at 10 μM)”. Further, at Mouse urotensin (mUR2), the “A11 radioligand binding, percentage inhibition” value was “− (“−” indicates less than 50% inhibition at 10 μM)”. Also, the “A3 radioligand binding, percentage inhibition” value on Human Melanocortin (MC3) is “− (“−” indicates less than 50% inhibition at 10 μM)”. Further, in [2], the “A9 radioligand binding, percentage inhibition” value is reported as “− (“−” indicates less than 50% inhibition at 10 μM)”. Also, at Human opioid (ORL1), the “A10 radioligand binding, percentage inhibition” value is “− (“−” indicates less than 50% inhibition at 10 μM)”. The “A4 radioligand binding, percentage inhibition” value on Human Melanocortin (MC4) was “− (“−” indicates less than 50% inhibition at 10 μM)”. Besides, on Human δ-opioid (DOP), the “A1 radioligand binding, percentage inhibition” value is reported as “− (“−” indicates less than 50% inhibition at 10 μM)”. In addition, at Human melanocortin (MC5), the “A5 radioligand binding, percentage inhibition” value was “− (“−” indicates less than 50% inhibition at 10 μM)”. In addition, the “A8 radioligand binding, percentage inhibition” value on Human neurokinin (NK1) was “− (“−” indicates less than 50% inhibition at 10 μM)”.

With `COC[C@H]1OC(OCc2cccc(O)c2)[C@H](NC(=O)CCCN)[C@@H](OCc2ccc(-c3ccccc3)cc2)[C@@H]1O` (stereo partly drawn) [compound 143], the “A7 radioligand binding, percentage inhibition” value on Human μ-opioid (MOP) is “+ (“+” indicates greater than 50% inhibition at 10 μM)”. In addition, at Human κ-Opioid (KOP), the “A2 radioligand binding, percentage inhibition” value is given as “− (“−” indicates less than 50% inhibition at 10 μM)”. In experiment [1], the “A6 radioligand binding, percentage inhibition” value is “− (“−” indicates less than 50% inhibition at 10 μM)”. Further, the “A11 radioligand binding, percentage inhibition” value on Mouse urotensin (mUR2) is “− (“−” indicates less than 50% inhibition at 10 μM)”. The “A3 radioligand binding, percentage inhibition” value on Human Melanocortin (MC3) is reported as “− (“−” indicates less than 50% inhibition at 10 μM)”. In addition, the “A9 radioligand binding, percentage inhibition” value in [2] is on record as “− (“−” indicates less than 50% inhibition at 10 μM)”. Further, the “A10 radioligand binding, percentage inhibition” value on Human opioid (ORL1) is “− (“−” indicates less than 50% inhibition at 10 μM)”. Further, the “A4 radioligand binding, percentage inhibition” value on Human Melanocortin (MC4) is “− (“−” indicates less than 50% inhibition at 10 μM)”. The “A1 radioligand binding, percentage inhibition” value at Human δ-opioid (DOP) is reported as “− (“−” indicates less than 50% inhibition at 10 μM)”. Moreover, the “A5 radioligand binding, percentage inhibition” value at Human melanocortin (MC5) is reported as “− (“−” indicates less than 50% inhibition at 10 μM)”. For the same compound, the “A8 radioligand binding, percentage inhibition” value on Human neurokinin (NK1) was “+ (“+” indicates greater than 50% inhibition at 10 μM)”.
